For 87 compounds, melting point results are on record in a melting point compilation (Tetko et al.).

A word on the melting point: it is the temperature of the solid-liquid transition. In turn, `CC(C)n1ccc(=O)nc1S` gave a melting point of 254 to 256 °C. `c1ccc(Nc2nnns2)cc1` gave a melting point of 144 to 146 °C.

For `CC(C)CNC(=O)NC(=O)C(C)Cl` (configuration not stated), the melting point is 85 to 87 °C. The value for `CNS(=O)(=O)c1c[nH]c(=O)[nH]c1=O` was 279 to 281 °C; that for `O=C(O)c1[nH]c2ccccc2c1Cl` was 179 to 181 °C; that for `Nc1cc(Br)ccc1[N+](=O)[O-]` was 143 to 145 °C.

As for `NC(=O)c1ccc(Cl)cc1N`, the melting point was 179 to 181 °C. In the case of `CCOC(=O)CC(C)(O)c1cccc(O)c1` (configuration not stated) it was 85 to 87 °C; in that of `CS(=O)(=O)CCCBr`, 35 to 37 °C; in that of `Cc1c(C(=O)O)cc([N+](=O)[O-])c(C)c1[N+](=O)[O-]`, 201 to 203 °C. In the case of `NNc1cc(C(F)(F)F)nc2ncnn12` it was 230 to 232 °C. The value for `COc1ccc(NC(=O)C(Cl)c2ccccc2)cc1` (configuration not stated) was 152 to 156 °C; that for `Cn1ccnc1C(O)(CC(=O)O)C(F)(F)F` (configuration not stated) was 186 to 188 °C. In turn, `OC1CCc2c(Cl)cccc21` (configuration not stated) came in with a melting point of 69 to 71 °C.

`CC(=O)N1CC(C(=O)O)C1` had a melting point of 149 to 151 °C. In the case of `COc1ccccc1NS(=O)(=O)c1ccc(NN)c([N+](=O)[O-])c1` it was 181 to 183 °C. `Nc1nc2c(Cl)c(Cl)ccc2s1` yielded a melting point of 129 to 131 °C. In the case of `Nc1nc(-c2ccc3c(c2)COC3)cs1` it was 204 to 206 °C. In the case of `CCn1c(=O)cc(N)n(Cc2ccccc2)c1=O` it was 106 to 108 °C; in that of `Cc1cc(C(=O)O)c2cc(Br)ccc2n1`, 259 to 261 °C. As to `Cc1c(C)n(-c2ccc(Cl)cc2)c2ncnc(N)c12`, the melting point lay in the range of 249 to 251 °C.

The compound `CNCCC1CCN(C2CCN(C)CC2)CC1` returned a melting point of 48 to 50 °C. `O=C(O)c1cc(-c2ccco2)nc2ccccc12` had a melting point of 209 to 211 °C. As to `CCOc1ccc(C=C(C#N)C(=O)O)cc1`, the melting point was in the range of 228 to 230 °C.

`O=[N+]([O-])c1ccccc1CS(=O)(=O)Cl` gave a melting point of 64 to 66 °C. The value for `NCC(c1cccs1)c1c[nH]c2ccccc12` (configuration not stated) was 145 to 147 °C; that for `OC1CCSc2ccccc21` (configuration not stated) was 67 to 69 °C.

As for `N#CCC1=NC(=O)CS1`, the melting point lay within 183 to 185 °C.

The compound `O=[N+]([O-])c1cc(Br)ccc1S(=O)(=O)Cl` had a melting point of 95 to 97 °C. The value for `Cc1ccc(C(=O)COc2ccc(C=O)cc2)cc1C` was 65 to 67 °C; that for `COc1ccc(N)cc1OCC1CCCO1` (configuration not stated) was 85 to 87 °C.

Consider `O=C1Nc2ccc(S(=O)(=O)Cl)cc2C1(Cl)Cl`, for which the melting point lay within 134 to 136 °C. The value for `CC1=NN(CC(C)C)C(=O)C1` was 124 to 126 °C; that for `Nc1nc2ccccc2n1CCCc1ccccc1` was 146 to 148 °C; that for `Cc1cc(C(=O)O)c2ccc(Br)cc2n1` was 289 to 291 °C.

`COC(=O)COc1ccc(C(=O)O)cc1OC` yielded a melting point of 170 to 172 °C.

Compound `Cc1nn2c(CO)c(C(C)C)nc2s1` gave a melting point of 119 to 121 °C. In the case of `Cc1cc(N)nn1-c1ccc(F)cc1` it was 70 to 72 °C; in that of `C=CCNC(=O)Nc1ccc(N)cc1`, 157 to 159 °C. In the case of `Cn1c(S)nnc1N1CCOCC1` it was 194 to 196 °C; in that of `COc1nc(N(C)C)sc1C=O`, 69 to 71 °C. In turn, `Nn1c(SCC(=O)O)nnc1C1CCCCC1` registered a melting point of 159 to 161 °C. Compound `Nc1ncccc1OCc1cccc(Cl)c1` displayed a melting point of 84 to 86 °C. The compound `CCNS(=O)(=O)c1ccc(F)c(C(=O)O)c1` returned a melting point of 154 to 156 °C. In the case of `O=c1[nH]nc2cncc(Cl)n12`, the melting point is 169 to 171 °C. In the case of `Sc1nnc(-c2ccc(Cl)cc2)n1Cc1ccco1` it was 117 to 119 °C; in that of `CC1CCN(C(=O)c2ccccc2N)CC1`, 59 to 61 °C. In the case of `CC(=O)NNC(=O)C(C)Cl` (configuration not stated) it was 156 to 158 °C.

Turning to `NNC(=O)c1cnn(-c2ccccc2)c1`, the melting point lay in the range of 179 to 181 °C. In the case of `OC1CCc2c(OCc3ccccc3)cccc21` (configuration not stated) it was 86 to 88 °C.

In turn, `Nc1ccc([N+](=O)[O-])c(Br)c1` had a melting point of 169 to 171 °C. The compound `O=C(O)c1cccnc1Oc1cccnc1` yielded a melting point of 190 to 192 °C.

`O=C(O)C1(c2cccc(Br)c2)CCCC1` had a melting point of 158 to 160 °C. The value for `Cc1ccsc1C(=O)Nc1ccc2c(c1)CCCN2` was 135 to 137 °C; that for `CC(C)(Cc1cccc(Cl)c1)C(=O)O` was 56 to 58 °C; that for `Cc1cc(C)c2c(c1)NCCC2` was 34 to 36 °C. In the case of `COC(=O)CS(=O)c1ccc(Br)cc1` (configuration not stated) it was 84 to 86 °C.

The compound `Cc1ccccc1NC(=O)C(C)Cl` (configuration not stated) came in with a melting point of 112 to 114 °C. `O=C(c1ccc(Cl)cc1)c1ccc2c(c1)OCO2` gave a melting point of 128 to 130 °C.

Compound `NS(=O)(=O)c1ccc(C(=O)O)nc1` had a melting point of 194 to 196 °C. In the case of `O=Cc1ccc(-c2ccc(Cl)cc2C(F)(F)F)s1` it was 58 to 60 °C; in that of `CC1C(=O)NC(=O)N1c1ccccc1` (configuration not stated), 147 to 149 °C; in that of `N#CCc1ccc(F)c(Br)c1`, 35 to 37 °C. On to `Nc1cc(-c2cccs2)ncn1`, for which the melting point was in the range of 222 to 224 °C. The value for `Cc1cc(C)c([N+](=O)[O-])c(=O)[nH]1` was 179 to 181 °C; that for `NC(C(=O)O)c1ccccc1F` (configuration not stated) was 229 to 231 °C; that for `O=C(O)C1CC1c1ccc2c(c1)OCCO2` (configuration not stated) was 160 to 162 °C. In the case of `Cn1c(Cl)nc(Cl)c1C=O` it was 61 to 63 °C. Compound `Clc1nc(-c2ccsc2)nc2ccccc12` came in with a melting point of 122 to 124 °C.

`CN(C)c1nc2sc(C(=O)O)cc2s1` registered a melting point of 205 to 207 °C. As to `Cc1sc2nc(CN3CCOCC3)nc(Cl)c2c1C`, the melting point lay in the range of 102 to 104 °C. In turn, `Cc1nc2c(F)cccc2c(Cl)c1C(C)C` came in with a melting point of 47 to 49 °C. The value for `CNCC(=O)Nc1ccc(C)cn1` was 79 to 81 °C; that for `O=c1cc(CO)occ1OCc1ccccc1` was 96 to 98 °C; that for `Cn1cc(C=CC(=O)O)c2ccccc21` was 139 to 141 °C. Regarding `CC(C)(C)OC(=O)N1C[C@H](C(=O)O)[C@@H](C(F)(F)F)C1`, the melting point was 117 to 119 °C. `O=C(O)C1(Cc2ccccc2)CC1` showed a melting point of 102 to 104 °C.

`O=C(O)C1SCCc2sccc21` (configuration not stated) came in with a melting point of 148 to 150 °C. Compound `Clc1ccc(Cn2cc(Br)cn2)cc1` displayed a melting point of 71 to 73 °C. `O=C(Nc1ccc(-n2cnc3ccccc32)nc1)OCC(F)(F)F` came in with a melting point of 239 to 241 °C. In the case of `O=C(O)c1cnn2c1CCCC2` it was 214 to 216 °C. In the case of `O=C(CCl)N(Cc1cccs1)C1CCS(=O)(=O)C1` (configuration not stated) it was less than 17 °C; in that of `N#CC=C(Cl)c1ccccc1`, 32 to 34 °C. In the case of `Cc1cc2n(n1)CC(C(F)(F)F)CN2` (configuration not stated) it was 194 to 196 °C; in that of `CCn1c(SCC(=O)O)nnc1-c1cccc(C)c1`, 281 to 283 °C. In the case of `Nc1ccc(NC(=O)NCC2CCCO2)cc1` (configuration not stated), the melting point was in the range of 141 to 143 °C.

`O=C(O)CSc1cccc(C(F)(F)F)c1` displayed a melting point of 19 to 21 °C.
